Test results taken from patent US20250090875A9, “IMMUNOSTIMULATORY COMPOUNDS AND CONJUGATES” (Seagen Inc., priority 2021, published 2025).

How the values were obtained:
MC38 tumors = assay: MC38 colon tumor model in C57BL/6 mice; format: in vivo, mouse; conditions: ADC, carboxylic acid vs methyl ester payload, FIG. 12
Description: The activity of several conjugated TLR7/8 molecules in both methyl ester and carboxylic acid forms were also assessed in another colon tumor model, MC38. Results of this analysis are summarized in FIG. 12, which the top panel summarizing tumor volume and the bottom panel providing percent survival across 9 treatment groups. […] However, the increase in anti-tumor activity of the carboxylic acid version of the ADC was much more pronounced in this model for the S18a (methyl ester) or S18b (carboxylic acid) TLR7/8 agonist.
To assess if the small molecule and conjugated agonist are specific for the toll like 7 and/or 8 receptors, various small molecules and ADCs were tested on TLR7 receptor knockout animals. As TLR8 is normally nonfunctional in mice, in TLR7−/− mice there is a total loss of ability to respond to compounds that work through these receptors. To assess whether compounds are TLR7/8 specific, MC38 tumors were implanted into either wild type C57B1/6 mice or cognate TLR7−/− mice. When tumors reached ˜50 mm3 mice animals were treated q7dx3 with vehicle (PBS), 1 mg/kg of the free small molecule S18a, the isotype/non-targeted ADC with cmpd 9 or with an immune cell targeted version of the cmpd 9 IDC.

CT26 tumors = format: in vivo
Source text: This example covers in vivo assessments of anti-tumor activity of ADCs with TLR7/8 agonists. An in vivo syngeneic system was used to assess the ability of the ADCs having TLR ⅞ agonists as the payload to induce immune responses and drive an anti-tumor immune response using a subcutaneous, heterotopic mouse colon carcinoma model (a CT26 system). Female Balb/c mice were implanted with 1×10^5 CT26 cells sub-cutaneously in the flank on day 0. When mean tumor size of 100 mm^3 (measured using the formula: Volume (mm^3)=0.5*Length*Width^2 where length is the longer dimension) was reached, the mice were randomized into treatment groups of 6 mice per group. Animals were then treated intraperitoneally with the indicated treatment every 7 days, for 3 doses total. Stock concentrations of the ADCs were diluted to the appropriate concentration and injected into animals in 100 μL volumes. Tumor length and width and mouse weights were measured throughout the study and tumor volume was calculated using the formula above. Animals were followed until tumor volume reached 1000 mm^3, when animals were then euthanized.

human immune cells = assay: Cytokine induction in human immune cells by TLR7/8 agonist-antibody conjugates (Luminex); format: cell-based; conditions: ADC with immune-targeting antibody, FIGS. 6, 7, 8
Description: Cells were stimulated with the various TLR7/8 agonist-antibody conjugates at different concentrations, and resulting supernatants were harvested and analyzed using a multiplex analyte kit (Luminex).
Immune cells were treated with 5 μg/mL of an immune-targeting antibody, TLR agonist compounds, and antibody conjugated with different TLR agonist compounds (to thereby form ADCs with average drug:antibody ratios of about 8). FIG. 6 summarizes MIP1β (left panel) and TNFα (right panel) responses generated by untreated immune cells, a TLR agonist coupled to a non-targeting antibody (‘Non-targeted’), and TLR agonist compounds conjugated with immune-targeted antibodies (‘targeted cmpd’ 1-7). […] Targeted compounds 2, 4, 5, and 7 correspond to C7 carboxymethylated imidazoquinoline compounds coupled to immunostimulatory antibodies by cleavable linkers. Targeted compounds 3 and 6 correspond to C7 carboxylated imidazoquinoline compounds coupled to immunostimulatory antibodies by cleavable linkers. FIG. 7 provides dose-dependent IL12p40 (left panel) and IL1β (right panel) responses generated with non-targeted (i.e., coupled to an isotype antibody) and immune targeting antibody conjugated compounds, with ‘cmpd 9’ corresponding to a C7 carboxylated imidazoquinoline compound and ‘cmpo10’ corresponding to its C7 carboxymethyl analogue. FIG. 8 provides dose-dependent interleukin 6 (IL6, left panel) and TNFα (right panel) responses with ADCs comprising immune cell targeting antibodies coupled to either C7 carboxylated (cmpd 3, 8, 9) or C7 carboxymethylated (cmpd 4, 7, 10) imidazoquinoline compounds.
In order to ascertain whether the difference in activity of the N1 vs. C4 linked conjugates seen in the Renca model was due to variable potency, a dose range experiment was performed. The N1 and C4 linked targeted (ADC) and non-targeted conjugates were administered in a wide dose range (0.001 to 10 μg/mL) to exogenously derived human immune cells. […] Supernatants were harvested and analyzed using a multiplex analyte kit (Luminex).

primary human PBMCs = assay: Cytokine induction in primary human PBMCs by small molecule TLR7/8 agonists (Luminex); format: cell-based; conditions: free drug; for IFNα, IL1β, MIP1β, TNFα induction, C7 carboxylic acid vs parent C7 methyl ester: FIG. 3; for MIP1β and TNFα responses: FIG. 4, compared with Resiquimod or methyl ester counterpart
Description: This example covers dose dependent human immune cell activation by small molecule TLR7/8 agonists. Primary human PBMCs were isolated from peripheral whole blood from human donors and were subjected to treatment with increasing concentrations of the agonists diluted in PBS. Cell culture supernatants were harvested 24 h after treatment and analyzed for induction of cytokines via multiplex ELISAs (Luminex).
Several small molecule TLR7/8 agonists were assessed for their ability to activate human immune cells in a dose dependent manner. Primary human PBMCs were isolated from peripheral whole blood from human donors and were subjected to treatment with increasing concentrations of the agonists diluted in PBS. 24 h after treatment cell culture supernatants were harvested and analyzed for induction of cytokines via multiplex ELISAs (Luminex).

[1] = SEC analysis of ADC aggregation (high molecular weight species) in plasma; format: physicochemical; conditions: ADC incubated with human or mouse plasma, FIG. 9
Description: Method I: Size-exclusion chromatography (SEC) was performed with a Waters ACQUITY UPLC system and an Acquity UPLC Protein BEH SEC Column, (200 Å, 1.7 μm, 4.6×150 mm, PN: 186005225). The mobile phase used was 7.5% isopropanol in 92.5% aqueous (25 mM sodium phosphate, 350 mM NaCl, pH 6.8), v/v. Elution was performed isocratically at a flow rate of 0.4 mL/min at ambient temperature.
To determine if any of these differences in activity potentially resulted from increases in aggregation as a subsequent result of changes in charge, SEC analysis was performed. ADCs containing either S18a (methyl ester) or S18b (carboxylic acid) were incubated with both human or mouse plasma and assessed for the formation of high molecular weight species (HMW) over time.

Renca tumors = assay: Renca kidney carcinoma model in Balb/c mice; format: in vivo, mouse; conditions: for loss of potency, C4-linked vs N1-linked conjugate: dose increase of C4-linked conjugate needed to match 2 mg/kg N1-linked conjugate
Description: The difference in anti-tumor activity of the S18a and S18b conjugates was also assessed in the Renca kidney model. In this model, mice bearing Renca tumors were treated q7dx3 when tumors reached ˜100 mm^3 as indicated, and followed for mean group tumor growth (FIG. 14, top) and survival (FIG. 14, bottom) over time.
This example covers cancer treatment with EphA2 targeted TLR agonists. […] Balb/c mice were implanted with Renca tumor cells and when cells reached 100 mm^3 they were treated Q7dx3 treatments with 2.4 mg/kg of the indicated IDC, either non targeting isotype or an EphA2 targeting mAb.

plasma cytokines [2] = assay: Systemic cytokine response in CT26-tumor bearing mice; format: in vivo, mouse
Description: In addition to analyzing this response in non-tumor bearing animals simply on systemic immune activation, the C4/N1-linked TLR7/8 drug antibody conjugates were also administered to CT26-tumor bearing animals to determine how the linkage site affects cytokine response and anti-tumor response. The results are shown in FIG. 17, which provides MIP1b (top panel) and TNFα (bottom panel) responses generated with N1-(cmpd 9) and C4-(cmpd 11) linked compounds conjugated to targeting and non-targeting antibodies, as well as for untreated cells. […] This was true for targeted and non-targeted control conjugates.

plasma cytokines [3] = assay: Systemic plasma cytokine induction in non-tumor bearing Balb/c mice; format: in vivo, mouse
[4] = tumor/immune targeted mAb, 2 mg/kg every 7 days, 3 doses, FIG. 38

Compound: CCCCc1nc2c(N)nc3cc(C(=O)O)ccc3c2n1Cc1ccc(CNC(=O)OCc2ccc(O[C@H]3O[C@H](CO)[C@@H](O)[C@H](O)[C@@H]3O)c(NC(=O)CCNC(=O)[C@H](CCCCNC(=O)CCOCCOCCOCCOCCOCCOCCOCCOCCOCCOCCOCCOC)NC(=O)CCN3C(=O)C=CC3=O)c2)cc1 [Compound 3, 4-amino-2-butyl-1-(4-(((((3-((S)-44-(3-(2,5-dioxo-2,5-dihydro-1H-pyrrol-1-yl)propanamido)-38,45-dioxo-2,5,8,11,14,17,20,23,26,29,32,35-dodecaoxa-39,46-diazanonatetracontan-49-amido)-4-(((2R,3S,4S,5S,6R)-3,4,5-trihydroxy-6-(hydroxymethyl)tetrahydro-2H-pyran-2-yl)oxy)benzyl)oxy)carbonyl)amino)methyl)benzyl)-1H-imidazo[4,5-c]quinoline-7-carboxylic acid]
- tumor growth delay and survival (MC38 tumors): slight increased survival advantage
- tumor growth delay and survival (CT26 tumors; targeted ADC, intraperitoneal, every 7 days, 3 doses): profound tumor growth delay

Compound: CCCCc1nc2c(N)nc3cc(C(=O)O)ccc3c2n1Cc1ccc(CN)cc1 [S8b, 4-amino-1-(4-(aminomethyl)benzyl)-2-butyl-1H-imidazo[4,5-c]quinoline-7-carboxylic acid]
- potency at activating immune cells vs methyl ester analogues (human immune cells): just as, if not more potent at activating immune cells than their methyl ester analogues
- IFNα, IL1β, MIP1β, TNFα induction, C7 carboxylic acid vs parent C7 methyl ester (primary human PBMCs): markedly lower potency and activity than its corresponding parent methyl ester compound
- MIP1β and TNFα responses (primary human PBMCs): lower activities than their methyl ester counterparts

Compound: CCCCc1nc2c(N)nc3cc(C(=O)O)ccc3c2n1CCN [S11b]
- potency at activating immune cells vs methyl ester analogues (human immune cells): just as, if not more potent at activating immune cells than their methyl ester analogues
- IFNα, IL1β, MIP1β, TNFα induction, C7 carboxylic acid vs parent C7 methyl ester (primary human PBMCs): markedly lower potency and activity than its corresponding parent methyl ester compound
- MIP1β and TNFα responses (primary human PBMCs): lower activities than their methyl ester counterparts

Compound: CCCCc1nc2c(N)nc3cc(C(=O)O)ccc3c2n1Cc1ccc(CN(C)C)cc1 [S18b]
- tumor growth delay and survival (MC38 tumors): distinct tumor growth delay and overall survival benefit
- potency at activating immune cells vs methyl ester analogues (human immune cells): just as, if not more potent at activating immune cells than their methyl ester analogues
- aggregation (formation of high molecular weight species over time) [1]: no significant difference in the amounts of aggregation
- tumor growth and survival (Renca tumors; ADC, q7dx3 from ~100 mm^3, FIG. 14): very good tumor growth delay and superior overall survival advantage

Compound: CCCCc1nc2c(NC(=O)OCc3ccc(O[C@H]4O[C@H](CO)[C@@H](O)[C@H](O)[C@@H]4O)c(NC(=O)CCNC(=O)[C@H](CCCCNC(=O)CCOCCOCCOCCOCCOCCOCCOCCOCCOCCOCCOCCOC)NC(=O)CCN4C(=O)C=CC4=O)c3)nc3cc(C(=O)O)ccc3c2n1Cc1ccc(CN(C)C)cc1 [cmpd 11, 2-butyl-1-(4-((dimethylamino)methyl)benzyl)-4-((((3-((S)-44-(3-(2,5-dioxo-2,5-dihydro-1H-pyrrol-1-yl)propanamido)-38,45-dioxo-2,5,8,11,14,17,20,23,26,29,32,35-dodecaoxa-39,46-diazanonatetracontan-49-amido)-4-(((2R,3 S,4S,5 S,6R)-3,4,5-trihydroxy-6-(hydroxymethyl)tetrahydro-2H-pyran-2-yl)oxy)benzyl)oxy)carbonyl)amino)-1H-imidazo[4,5-c]quinoline-7-carboxylic acid]
- animals reaching complete tumor cures (CT26 tumors; EphA2 targeting mAb): 50%
- anti-tumor activity and tumor growth delay (CT26 tumors; EphA2 targeting mAb or isotype, FIGS. 35, 36): all animals benefiting from tumor growth delay
- animals fully cured (CT26 tumors; [4]): no cures
- median tumor volume (tumor growth delay) (CT26 tumors; [4]): advantage with the TLR7/8 containing IDC vs the naked tumor/immune targeted mAb in terms of tumor growth delay
- systemic activation (majority of cytokines), C4 vs N1 linkage (plasma cytokines [2]; targeted and non-targeted control conjugates, FIG. 17): reduced systemic activation
- TNFα and MIP1β, C4 vs N1 linkage (plasma cytokines [2]; targeted antibody conjugate): equivalent for TNFα but showed benefit for MIP1β
- tumor growth (Renca tumors; EphA2 targeting mAb or isotype, Q7dx3, 2-2.4 mg/kg): substantial tumor growth delayed noted for several of the animals
- loss of potency, C4-linked vs N1-linked conjugate (Renca tumors): ~4 ×
- loss of potency, C4-linked vs N1-linked conjugate (Renca tumors; listed as Compound 11): approximately 4 ×
- IL6 and TNFα levels, C4 vs N1 linkage (plasma cytokines [3]; immune-targeted ADC, 2 mg/kg intraperitoneal): no changes in IL6 or TNFα levels
- reduction of systemic cytokine induction (MCP1, IP10, MIP1a, MIP1b, RANTES), C4 vs N1 linkage (plasma cytokines [3]; immune-targeted ADC, 2 mg/kg intraperitoneal, plasma 3/6/24 h): 4.8 -fold
- systemic cytokines (MIP1β, TNFα), C4 vs N1 linkage (plasma cytokines [3]; non-targeting ADC, FIG. 16): greatly diminished systemic cytokines and non-specific uptake
